Measured values: article PMC11806944 (Analytical methods : advancing methods and applications, 2025)

What was measured:
[1] = Sorption control wells: abiotic losses to polystyrene 96-well microplate; type: physicochemical
zebrafish embryos [2] = details: Tropical 5D wild-type, in vivo, 35 μM; for Chemical uptake amount as share of the total chemical amount added: 5 day
zebrafish embryos [3] = details: ~120 hpf; for Incidence of any effect in embryonic zebrafish: 35 μM exposure with daily UV fluorescence measurement
embryonic zebrafish = details: cited from earlier work
[4] = estimated; cited from earlier work
[5] = ref Hazard Substances Data Bank (HSDB); cited from earlier work

Row | SMILES | Actual equilibrium media concentration ([1]; control wells, reached after 1 day, ~35 μM nominal) | Total uptake mass per zebrafish embryo, corrected for abiotic losses (zebrafish embryos [2]) | Chemical uptake amount as share of the total chemical amount added (zebrafish embryos [2]) | Incidence of any effect in embryonic zebrafish (zebrafish embryos [3]) | Endpoints observed shared by both chemicals (zebrafish embryos [3]; 35 μM exposure) | Lowest observed adverse effect level (LOAEL) (embryonic zebrafish) | log Kow [4] | Henry's coefficient [5] | Decrease in sorption rate when plates were removed from the shaker table ([1]; t ≤ 1 day vs t ≥ 1 day) | Further endpoints observed (zebrafish embryos [3]; 35 μM exposure)
1 | Oc1ccc2ccccc2c1 [2-hydroxynaphthalene] | approximately 31.5 μM | 2.09 ± 0.89 nmol | approximately 50% | 97% | mortality, yolk sac and pericardial edema, and pectoral fin malformation | 35 µM | 2.7 | 2.7 × 10^−8 atm m^3 mol^−1 |  | 
2 | c1ccc2nc3ccccc3cc2c1 [acridine, Acridine] |  | 0.67 ± 0.26 nmol | ~21% | 100% | mortality, yolk sac and pericardial edema, and pectoral fin malformation | 35 µM | 3.4 | 4 × 10^−7 atm m^3 mol^−1 | 2 factor | Axis and cranial deformities
